Experimental findings from US20130236568A1, “PHOSPHAPLATINS HAVING ANTI-ANGIOGENIC, ANTI-METASTATIC, AND PRO-APOPTOTIC PROPERTIES AND USES THEREOF” (Ohio University, priority 2011, published 2013) are described below.

Assay type in all cases: cell-based, human
One assay has as its system VEGFR2 gene. The assay is described as follows: Quantitative real-time PCR, VEGFR2 gene expression in A2780/C30 cells. Here is the method:
(§1) Evaluations of selected gene expressions in Human Umbilical Vein Endothelial Cells (HUVEC) and Human Ovarian Cancer Cells by quantitative reverse transcriptase polymerase chain reaction (PCR)
(§2) Quantitative real-time PCR experiments were performed to estimate the expression of a selection of targeted genes. HUVEC cells (Lonza Walkersville, Frederick, Md.) were cultured on 0.1% gelatin-coated petri dishes by following standard protocols recommended by the vendor in a humidified incubator by maintaining 5% CO2 at 37° C. Human epithelial ovarian cancer cells (A2780) and cisplatin-resistant cells (A2780/C30) were cultured in RPMI 1640 with or without cisplatin (7 μM) and pyrodach-4 (180 μM) for 0, 3, 12 and 24 hours. […] HUVECs were treated with or without cisplatin (7 μM) or pyrodach-4 (90 or 180 μM) for various durations ranging from 1 hr. to 6 hrs.
(§3) Both treated and untreated cancer cells were maintained in RPMI 1640 medium with 10% fetal bovine serum, 2 μmol L-glutamine, 100 units/mL penicillin-streptomycin and 0.25 units/mL insulin solution, at 37° C. with 5% CO2. RNA was isolated from both the treated and untreated cells. […] The quantity and purity of RNA were determined by UV spectroscopy (NanoDrop 2000 Thermo Scientific, Wilmington, Del.). A minimum absorbance ratio index (ratio of the absorbance measured at 260 nm over that at 280 nm) of 1.9 was used as an acceptable purity. […] The target gene was labeled with a blue dye (FAM, absorbance: 494 nm, emission: 518 nm) while the reference gene was tagged with a green dye (VIC, absorbance: 538 nm, emission: 554 nm). The cDNA concentrations were selected such that the threshold cycle (Ct) values for the target genes were between 17 and 32, most sensitive for the fluorescence detection by ABI StepOnePlus™ instrument used for the measurements.
(§4) The threshold cycle number (Ct), the point at which the fluorescence of the qPCR reaction just exceeds the threshold fluorescence of the detection system, was determined. […]

In assay [1] the test system is PTEN. Description: Quantitative real-time PCR, PTEN expression in A2780/C30 cells. Here is the method:
as §1
(§5) Quantitative real-time PCR experiments were performed to estimate the expression of a selection of targeted genes. HUVEC cells (Lonza Walkersville, Frederick, Md.) were cultured on 0.1% gelatin-coated petri dishes by following standard protocols recommended by the vendor in a humidified incubator by maintaining 5% CO2 at 37° C. […]
as §3, with “CO2.” for “CO2. RNA was isolated from both the treated and untreated cells.”, “The cDNA concentrations were selected such that the threshold cycle (Ct) values for the target genes were between 17 and 32, most sensitive for the fluorescence detection by ABI StepOnePlus™ instrument used for the measurements.” left out
as §4

Another assay relates to Bcl-2. Description: Expression of key genes with and without p53 inhibitor (Table 3): Bcl-2. The note with it: positive = manifold increase, negative = decrease vs untreated cells. Here is the method: as §2
as §3, with “The cDNA concentrations were selected such that the threshold cycle (Ct) values for the target genes were between 17 and 32, most sensitive for the fluorescence detection by ABI StepOnePlus™ instrument used for the measurements.” left out

Another assay has as its system Caspase 3. Description: Expression of key genes with and without p53 inhibitor (Table 3): Caspase 3. The note with it: positive = manifold increase, negative = decrease vs untreated cells. Here is the method: as §2
as §3, with “The cDNA concentrations were selected such that the threshold cycle (Ct) values for the target genes were between 17 and 32, most sensitive for the fluorescence detection by ABI StepOnePlus™ instrument used for the measurements.” left out

Assay [2] concerns PTEN. The assay is described as follows: Quantitative real-time PCR, PTEN expression in HUVEC. The note with it: HUVEC treated with pyrodach-4. Here is the method:
as §1, §5
as §3, with “CO2.” for “CO2. RNA was isolated from both the treated and untreated cells.”, “The cDNA concentrations were selected such that the threshold cycle (Ct) values for the target genes were between 17 and 32, most sensitive for the fluorescence detection by ABI StepOnePlus™ instrument used for the measurements.” left out
as §4
(In general: Quantitative PCR measures a nucleic acid by following its amplification.)

Another assay relates to caspase-3. Description: Quantitative real-time PCR, caspase-3 expression in HUVEC. Particulars: HUVEC treated with pyrodach-4. Here is the method: as §1, §5
as §3, with “CO2.” for “CO2. RNA was isolated from both the treated and untreated cells.”, “The cDNA concentrations were selected such that the threshold cycle (Ct) values for the target genes were between 17 and 32, most sensitive for the fluorescence detection by ABI StepOnePlus™ instrument used for the measurements.” left out
as §4

A further assay relates to caspase-9. Description: Quantitative real-time PCR, caspase-9 expression in HUVEC. Particulars: HUVEC treated with pyrodach-4. Here is the method:
as §1, §5
as §3, with “CO2.” for “CO2. RNA was isolated from both the treated and untreated cells.”, “The cDNA concentrations were selected such that the threshold cycle (Ct) values for the target genes were between 17 and 32, most sensitive for the fluorescence detection by ABI StepOnePlus™ instrument used for the measurements.” left out
as §4

The test system of another assay is BAX. Description: Quantitative real-time PCR, Bax expression in HUVEC. The note with it: HUVEC treated with pyrodach-4. Here is the method:
as §1, §5
as §3, with “CO2.” for “CO2. RNA was isolated from both the treated and untreated cells.”, “The cDNA concentrations were selected such that the threshold cycle (Ct) values for the target genes were between 17 and 32, most sensitive for the fluorescence detection by ABI StepOnePlus™ instrument used for the measurements.” left out
as §4

For a further assay, the system named is E-cadherin. The assay is described as follows: Immunofluorescent labeling of E-cadherin protein in A2780 cells. Particulars: 24 hr treatment at or below IC50 concentration. Here is the method:
Left panels show E-cadherin bound to its antibody labeled with FITC (green). The middle and right panels represent nuclei stained with Prolong® Gold Antifade Reagent with 4′-6-Diamidino-2-phenylindole (DAPI, a nuclear stain) and merger of the left and middle panels (see Example 5 below for details).
Cells were grown on multi-chamber slide systems (Lab-Tek™, Nunc, Denmark). These cells were treated with pyrodach-4 at or below IC50 concentrations for 24 hours. Untreated cells were used as a control while treated and untreated cells without primary antibody labeling were used as negative controls. […] The Fas and E-cadherin proteins were detected via direct labeling using anti-Fas (FITC labeled, Santa Cruz Biotechnology, Inc., Santa Cruz, Calif.) and anti-E-cadherin (FITC labeled, BD Transduction Laboratories, Franklin Lakes, N.J.) fluorescently tagged antibodies. Other proteins, p53, BAX and PUMA were detected indirectly with fluorescently labeled secondary antibodies (Texas Red-conjugated anti-mouse IgG for p53 and Fluorescein-conjugated anti-rabbit IgG for BAX and PUMA, obtained from Vector Labs, Burlingame, Calif.) at 1:1000 dilution. […] The stain was cured for 24 hours before fluorescence images were acquired. […]

A further assay relates to A2780/C30 cells. The assay is described as follows: Cell death detection assay with ELISA, A2780/C30 cells. On the technique in general: ELISA stands for enzyme-linked immunosorbent assay.

“trans-(±)-1,2-cyclohexanediamine-trans-dihydroxo(pyrophosphato) platinum(IV) [Pyrodach-4]”: the “Normalized expression of VEGFR2 gene” value with VEGFR2 gene (A2780/C30 (cisplatin-resistant), positive = manifold increase, negative = relative decrease vs untreated cells, cisplatin 7 μM, pyrodach-4 180 μM) is reported as −2.0. Besides, the “Suppression of VEGFR-2 gene expression” value in the assay with VEGFR2 gene (cisplatin-resistant human ovarian cancer cells) was ≤ 50%. Moreover, the “Expression of the PTEN gene compared to control” value in the assay on PTEN [1] was determined as 2.3 fold. Also, the “Normalized expression of PTEN” value in the assay on PTEN [1] (pyrodach-4 alone, control = 1.0) came out at 2.3. In addition, the “Expression of Bcl-2” value in the assay on Bcl-2 (Pyrodach-4 + PFT-α) is recorded as −2.0; with Bcl-2 (Pyrodach-4 treatment only) it was 1.0. Further, the “Expression of Caspase 3” value is reported as −1.2 in the assay with Caspase 3 (Pyrodach-4 + PFT-α) and 2.6 in the assay on Caspase 3 (Pyrodach-4 treatment only). The “Over-expression of PTEN” value in the assay on PTEN [2] is 4-8 fold. The “Over-expression of caspase-3” value in the assay with caspase-3 was 2-3 fold. For the same substance, the “Over-expression of caspase-9” value in the assay with caspase-9 is listed as 2-3 fold. The “Over-expression of Bax” value with BAX is listed as 2-3 fold. Further, the “Diffusivity of E-cadherin (immunofluorescence)” value in the assay on E-cadherin is “reduces the diffusivity”. The “Expression of E-cadherin protein (immunofluorescence)” value in the assay on E-cadherin is given as “increases the expression”. In addition, the “Apoptotic cell death (ELISA absorbance)” value in the assay with A2780/C30 cells (7 μM cisplatin or 180 μM D4) is on record as “unambiguously showed cell death”. Besides, the “Effect of p53 and PI3K inhibitors on apoptotic cell death (ELISA absorbance)” value in the assay on A2780/C30 cells (180 μM D4 with PFT-α 15 μM or LY294002 30 μM) is “no effects”.
